In PubChem BioAssay AID1963865 (Molecular Pharmacology Branch, DTP, NCI, 2024):

Test system: KRAS PDC multicell spheroid viability
Assay: Anticancer human tumor 825966-067-R-J1-PDC patient-derived colon carcinoma cell line growth inhibition [KRAS2]
Details: for IC50: curve of first compound; for viability, T/C: stronger effect = lower value
How it was run: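 Combination screen of spheroid viability in tumor-cell co-cultures with endothelial (HUVEC) and mesenchymal stem cell stroma. Each agent was tested in half-log dilutions, topping at clinical Cmax or at 10 microM without a known Cmax.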

[1] = second compound 0.1 µM, first compound 0.0316 µM
[2] = second compound 0.1 µM, first compound 0.1 µM
[3] = second compound 0.1 µM, first compound 0.316 µM
[4] = second compound 0.1 µM, first compound 1 µM
[5] = second compound 0.1 µM, first compound 3.16 µM
[6] = second compound 0.316 µM, first compound 0.0316 µM
[7] = second compound 0.316 µM, first compound 0.1 µM
[8] = second compound 0.316 µM, first compound 0.316 µM
[9] = second compound 0.316 µM, first compound 1 µM
[10] = second compound 0.316 µM, first compound 3.16 µM
[11] = second compound 1 µM, first compound 0.0316 µM
[12] = second compound 1 µM, first compound 0.1 µM
[13] = second compound 1 µM, first compound 0.316 µM
[14] = second compound 1 µM, first compound 1 µM
[15] = second compound 1 µM, first compound 3.16 µM
[16] = second compound 3.16 µM, first compound 0.0316 µM
[17] = second compound 3.16 µM, first compound 0.1 µM
[18] = second compound 3.16 µM, first compound 0.316 µM
[19] = second compound 3.16 µM, first compound 1 µM
[20] = second compound 3.16 µM, first compound 3.16 µM
[21] = second compound 10 µM, first compound 0.0316 µM
[22] = second compound 10 µM, first compound 0.1 µM
[23] = second compound 10 µM, first compound 0.316 µM
[24] = second compound 10 µM, first compound 1 µM
[25] = second compound 10 µM, first compound 3.16 µM
[26] = second compound 0.1 µM, first compound 10 µM
[27] = second compound 0.316 µM, first compound 10 µM
[28] = second compound 1 µM, first compound 10 µM
[29] = second compound 3.16 µM, first compound 10 µM
[30] = second compound 10 µM, first compound 10 µM
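Further: spheroids exposed to compounds for 7 days.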
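Wherever viability, T/C is given: 100% = DMSO vehicle control viability.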

SMILES	IC50 (second compound 0.1 µM) [nM]	IC50 (second compound 0.316 µM) [nM]	IC50 (second compound 1 µM) [nM]	IC50 (second compound 3.16 µM) [nM]	viability, T/C [1] [%]	viability, T/C [2] [%]	viability, T/C [3] [%]	viability, T/C [4] [%]	viability, T/C [5] [%]	viability, T/C [6] [%]	viability, T/C [7] [%]	viability, T/C [8] [%]	viability, T/C [9] [%]	viability, T/C [10] [%]	viability, T/C [11] [%]	viability, T/C [12] [%]	viability, T/C [13] [%]	viability, T/C [14] [%]	viability, T/C [15] [%]	viability, T/C [16] [%]	other results
CC1COCCN1c1cc(-c2ccnn2C)c2ccnc(-c3ccn[nH]3)c2n1 (stereo not given) + CC1OCC2(CCN(c3cnc(Sc4ccnc(N)c4Cl)c(N)n3)CC2)C1N	2860	> 3160	3160	79.3	120	78.5	75.3	60	46.6	139	57.9	66.4	60.2	59	135	57.4	55.8	51.3	48.5	118	IC50 (second compound 10 µM): 17.2 nM; viability, T/C (second compound 0.1 µM, first compound 0.01 µM): 135%; viability, T/C (second compound 0.316 µM, first compound 0.01 µM): 125%; viability, T/C (second compound 1 µM, first compound 0.01 µM): 128%; viability, T/C (second compound 3.16 µM, first compound 0.01 µM): 134%; viability, T/C [17]: 32.4%; viability, T/C [18]: 29%; viability, T/C [19]: 32.9%; viability, T/C [20]: 36.3%; viability, T/C (second compound 10 µM, first compound 0.01 µM): 68.1%; viability, T/C [21]: 29.6%; viability, T/C [22]: 12.9%; viability, T/C [23]: 11.3%; viability, T/C [24]: 12.6%; viability, T/C [25]: 18.3%
COc1cc(Nc2ncc3c(n2)-c2ccc(Cl)cc2C(c2c(F)cccc2OC)=NC3)ccc1C(=O)O + C=CC(=O)N1CCN(c2nc(OCC3CCCN3C)nc3c2CCN(c2cccc4cccc(C)c24)C3)CC1CC#N	> 10000	> 10000	> 10000	4430	129	142	123	129	122	124	154	112	134	129	104	150	153	135	121	45	IC50 (second compound 0.0316 µM): > 10000 nM; viability, T/C (second compound 0.0316 µM, first compound 0.0316 µM): 136%; viability, T/C (second compound 0.0316 µM, first compound 0.1 µM): 129%; viability, T/C (second compound 0.0316 µM, first compound 0.316 µM): 144%; viability, T/C (second compound 0.0316 µM, first compound 1 µM): 137%; viability, T/C (second compound 0.0316 µM, first compound 3.16 µM): 138%; viability, T/C (second compound 0.0316 µM, first compound 10 µM): 127%; viability, T/C [26]: 140%; viability, T/C [27]: 141%; viability, T/C [28]: 114%; viability, T/C [17]: 130%; viability, T/C [18]: 73.1%; viability, T/C [19]: 104%; viability, T/C [20]: 67.1%; viability, T/C [29]: 8.84%
COc1cc(Nc2ncc3c(n2)-c2ccc(Cl)cc2C(c2c(F)cccc2OC)=NC3)ccc1C(=O)O + CC1OCC2(CCN(c3cnc(Sc4ccnc(N)c4Cl)c(N)n3)CC2)C1N	> 10000	> 10000	> 10000	> 10000	132	144	125	154	154	127	111	147	143	154	129	145	141	122	119	64.6	IC50 (second compound 10 µM): < 31.6 nM; viability, T/C [26]: 135%; viability, T/C [27]: 133%; viability, T/C [28]: 103%; viability, T/C [17]: 127%; viability, T/C [18]: 107%; viability, T/C [19]: 74.1%; viability, T/C [20]: 101%; viability, T/C [29]: 123%; viability, T/C [21]: 14.9%; viability, T/C [22]: 10.9%; viability, T/C [23]: 22%; viability, T/C [24]: 20.2%; viability, T/C [25]: 18.5%; viability, T/C [30]: 39.6%
CC1(C)CCC(CN2CCN(c3ccc(C(=O)NS(=O)(=O)c4ccc(NCC5CCOCC5)c([N+](=O)[O-])c4)c(Oc4cnc5[nH]ccc5c4)c3)CC2)=C(c2ccc(Cl)cc2)C1 + C=CC(=O)N1CCN(c2nc(=O)n(-c3c(C)ccnc3C(C)C)c3nc(-c4c(O)cccc4F)c(F)cc23)C(C)C1	2020	2190	2070	1770	90.5	99.3	115	95.9	20.8	93.6	86.6	103	94.7	29.2	102	108	81.2	104	21.3	76.4	IC50 (second compound 10 µM): 1900 nM; viability, T/C [26]: 6.39%; viability, T/C [27]: 5.85%; viability, T/C [28]: 1.24%; viability, T/C [17]: 103%; viability, T/C [18]: 102%; viability, T/C [19]: 81.1%; viability, T/C [20]: 18.2%; viability, T/C [29]: 2.96%; viability, T/C [21]: 89.7%; viability, T/C [22]: 98.1%; viability, T/C [23]: 107%; viability, T/C [24]: 110%; viability, T/C [25]: 9.64%; viability, T/C [30]: 1.37%
